Data as given in patent US8324267B2, “Kinase inhibitors and the use thereof” (Forschungzentrum Karlsruhe GmbH, priority 2001, dated 2012).
Entries after “also recorded” stand apart in the source; their conditions may differ.

Assays:
[1] = biological target: VEGFR-3 (Homo sapiens, UniProt P35916); test: Ligand-induced autophosphorylation in VEGFR-3-expressing PAE cells (immunoprecipitation, Western blot); assay type: cell-based; settings: for inhibition of ligand-induced autophosphorylation of VEGFR-3: PAE/VEGFR-3 cells, VEGF-C stimulated, 0.5, 5 or 50 μM, FIG. 1
VEGFR-3, sequence (P35916 25-1363): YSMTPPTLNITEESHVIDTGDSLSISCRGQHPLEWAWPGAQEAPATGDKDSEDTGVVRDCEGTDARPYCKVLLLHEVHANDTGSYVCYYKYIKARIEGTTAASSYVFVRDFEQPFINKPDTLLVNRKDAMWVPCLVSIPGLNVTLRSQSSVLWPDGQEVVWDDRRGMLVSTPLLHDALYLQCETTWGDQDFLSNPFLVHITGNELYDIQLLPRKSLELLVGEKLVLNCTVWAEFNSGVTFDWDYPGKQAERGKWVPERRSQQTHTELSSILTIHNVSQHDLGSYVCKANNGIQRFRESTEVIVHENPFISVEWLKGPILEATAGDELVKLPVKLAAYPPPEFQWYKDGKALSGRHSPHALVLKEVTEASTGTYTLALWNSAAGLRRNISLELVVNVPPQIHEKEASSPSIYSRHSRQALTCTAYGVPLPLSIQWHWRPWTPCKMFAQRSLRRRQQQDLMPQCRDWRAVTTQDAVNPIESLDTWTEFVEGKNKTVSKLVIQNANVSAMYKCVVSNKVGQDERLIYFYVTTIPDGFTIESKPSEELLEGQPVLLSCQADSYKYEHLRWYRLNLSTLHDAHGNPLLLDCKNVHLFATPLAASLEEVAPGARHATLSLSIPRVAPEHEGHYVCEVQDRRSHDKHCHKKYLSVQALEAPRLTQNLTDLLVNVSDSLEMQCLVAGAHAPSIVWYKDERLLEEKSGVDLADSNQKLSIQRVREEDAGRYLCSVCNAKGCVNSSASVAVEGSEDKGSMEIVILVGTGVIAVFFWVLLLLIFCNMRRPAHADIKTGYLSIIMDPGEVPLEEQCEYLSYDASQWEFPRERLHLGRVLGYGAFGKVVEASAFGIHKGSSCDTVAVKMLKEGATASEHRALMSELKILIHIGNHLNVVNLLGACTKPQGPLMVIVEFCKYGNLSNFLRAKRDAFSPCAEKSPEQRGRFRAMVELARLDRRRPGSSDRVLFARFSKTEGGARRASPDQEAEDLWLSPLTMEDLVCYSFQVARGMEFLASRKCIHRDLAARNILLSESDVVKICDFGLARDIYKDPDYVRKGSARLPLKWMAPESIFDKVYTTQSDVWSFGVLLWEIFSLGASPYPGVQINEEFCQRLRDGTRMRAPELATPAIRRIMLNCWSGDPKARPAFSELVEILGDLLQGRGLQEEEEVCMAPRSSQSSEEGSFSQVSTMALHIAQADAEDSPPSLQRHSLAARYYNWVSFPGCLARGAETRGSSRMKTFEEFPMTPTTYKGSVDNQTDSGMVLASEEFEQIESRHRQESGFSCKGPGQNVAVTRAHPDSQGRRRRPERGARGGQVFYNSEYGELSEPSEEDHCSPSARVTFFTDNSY
Experimental: VEGFR-2- and VEGFR-3-expressing PAE cells (pig aorta endothel cells) were incubated with 0.5 μM, 5 μM or 50 μM of the appropriate test compound. The cells were then stimulated with VEGF (VEGFR-2) or VEGF-C (VEGFR-3) or without growth factor as negative control. The cells were harvested after 15 min and immunoprecipitated with VEGFR-2 or VEGFR-3. The immunoprecipitates were blotted after electrophoresis and investigated with anti-phosphotyrosine antibody. The blots were detached and investigated with VEGFR-2 or VEGFR-3 antibody to check the loading.
PAE/VEGFR-2 or PAE/VEGFR-3 were seeded in 15 cm tissue culture tissues and cultivated to 50% confluence. The cells were then starved in serum-free medium (with 0.2% BSA) for 16-24 h (PAE/VEGFR-3) or 72 h […]. After preincubation with 5 ml of 1 mM serum-free medium (1 mM Na3VO4) and various inhibitor concentrations for 30-60 min, the cells were stimulated at 37° C. for 5 min (VEGFR-3) or 8 min (VEGFR-2). The cells were then rapidly washed twice with ice-cold PBS (with 1 mM Na3VO4) and lysed with ice-cold modified RIPA buffer (30 mM Tris-HCl, pH 7.4, 150 mM NaCl, 1 mM EDTA, 0.5% (v/v) Triton X100, 0.5% (w/v) sodium deoxycholate, 10 mM NaF) freshly prepared with 1 mM PMSF, 0.1 U/ml aprotinin, 10 ng/ml leupeptin and 5 mM Na3VO4. The cells were harvested from the plate with the aid of a rubber policeman and collected in centrifuge tubes on ice. The lysates were solubilized by forcing through a syringe with a 25 G needle, and were centrifuged at 4° C./13 000 rpm for 15 min to remove insoluble constituents.
The clear lysates were incubated with 4 μg of anti-VEGFR-2 (C-1158, Santa Cruz) or […] at 4° C. overnight.
The receptor-antibody complex was precipitated by adding 30 μl of protein A-Sepharose (Amersham)/tube and incubating at 4° C. for a further 2 hours.
The Sepharose were then centrifuged at 4° C. for 1 min and washed three times with cold washing buffer (30 mM Tris-HCl, pH 7.4, 150 mM NaCl, 1 mM EDTA, 0.5% (v/v) Triton X100, 0.5% (w/v) sodium deoxycholate, 10 mM NaF) freshly prepared with 1 mM PMSF, 0.1 U/ml aprotinin, 10 ng/ml leupeptin and 5 mM Na3VO4. The remainder of the washing buffer was removed by aspiration through a syringe provided with a 27 G needle. The Sepharose beads were resuspended in 50 μl of SDS loading buffer, boiled and loaded onto a 6% […] gel. After the electrophoretic fractionation, the proteins were fixed on an appropriate membrane by Western blotting. The blots were investigated first with the aid of an anti-phosphotyrosine antibody (RC20:HRPO, Becton Dickinson) and then the first antibody was removed again in order to investigate the blot for the protein loading with specific anti-receptor antibodies. […]

[2] = system: chorioallantoic membrane (CAM); test: Chorioallantoic membrane (CAM) angiogenesis assay; assay type: in vivo; settings: chick embryos, 100 μg of inhibitor on methylcellulose disk, day 5 to day 7; FIG. 3
Experimental: The chorioallantoic membrane (CAM) assay was carried out as described (Wernert et al.) with chick embryos 5 days after fertilization. Methylcellulose disks (diameter 2 mm) with 100 μg of inhibitor were applied to the CAMs. Evaluation took place on day 7. A. negative control B. MAE 106-treated egg.
FIG. 3: Inhibition of angiogenesis in a chorioallantoic membrane (CAM). A: sham-treated cells (control). B: Mae106-treated cells of the CAM.

[3] = system: rat carcinoma cell lines; test: Apoptosis in rat tumor cell lines, nucleosome ELISA; assay type: cell-based; settings: 2.5 μM or 10 μM, 24 h, FIG. 6
Experimental: Cells of the rat tumor cell line (Nestl et al., 2001, Cancer Research 61: 1569-1577) were cultivated in the presence of 1% DMSO (solvent control), 2.5 μM or 10 μM of the indolinone for 24 h. Apoptosis was quantified with the aid of anti-DNA peroxidase antibody. The amount of dye produced in the chromogenic reaction catalyzed by the peroxidase was measured by photometry at 405 nm and correlated with the amount of apoptosis-associated cytoplasmic mono- and oligonucleosomes. The data are stated in % apoptosis relative to the cells of the solvent control (% relative to control) (FIG. 6).
FIG. 6: Nucleosome ELISA test (Cell Death Detection ELISA). The extent of dead cells of the respective rat tumor cell line is depicted (apoptosis in %) in relation to the use of the inhibitors MAE87, MAE106 and MAZ51.

Row | Compound | inhibition of ligand-induced autophosphorylation of VEGFR-3 [1] | inhibition of angiogenesis (network of blood vessels) in the CAM [2] | induction of apoptosis (% relative to solvent control) [3] | selectivity of inhibition of autophosphorylation, VEGFR-3 versus VEGFR-2 ([1]; 5 μM, PAE cells)
1 | O=C1Nc2ccccc2C1=Cc1ccc(O)cc1O [MAE87, 3-(2,4-Dihydroxybenzylidene)-1,3-dihydroindol-2-one] | Inhibit the Ligand-Induced Autophosphorylation | Inhibit Angiogenesis | induce cell death | 
2 | COc1ccc(C=C2C(=O)Nc3ccccc32)cc1F [MAE106, 3-(3-Fluoro-4-methoxybenzylidene)-1,3-dihydroindole-2-one] | Inhibit the Ligand-Induced Autophosphorylation | highly underdeveloped | induce cell death | 
3 | CN(C)c1ccc(C=C2C(=O)Nc3ccccc32)c2ccccc12 [MAZ51, 3-(4-Dimethylaminonaphthalen-1-ylmethylene)-1,3-dihydroindol-2-one] | Inhibit the Ligand-Induced Autophosphorylation | Inhibit Angiogenesis | most potent apoptosis inducer; also recorded: induce cell death | selectively inhibits VEGFR-3
